Target: T1, glucan synthase (GS) (Candida albicans, UniProt O13428)
T1 construct: Extraction of GS activity from membranes was performed at a protein concentration of 5 mg/mL in extraction buffer; endogenous in cells; host or cells: Candida albicans MY1055 (membrane fraction, detergent extraction, product entrapment)
Assay: Glucan synthase inhibition (polymerization assay, 96-well)
Type: biochemical
Details: glucan synthase prepared from Candida albicans MY1055; 60 min incubation at 22° C.; read-out: Candida Albicans GS IC50 (ng/mL) (converted)
Experimental: The in vitro evaluation of glucan synthase inhibitory activity of compounds was measured in a polymerization assay in 96-well format. Each well contained 100 μL of ^3H-UDPG at 0.5 mM (6000 to 8000 dpm/nmol), 50 mM HEPES pH 7.5 (Sigma), 10% w/v glycerol (Sigma), 1.5 mg/mL bovine serum albumin (Sigma A 9647. Lot 44H0190), 25 mM KF (Fisher), 1 mM EDTA (Gibco ULTRAPURE), 25 μM GTP-γ-S, enzyme sufficient to give 3 to 6 nmoles incorporation during the 60 min incubation at 22° C., and test compound added from wells in 3-fold serial dilutions in 100% DMSO (1 μL/well). The reaction was stopped by the addition of 100 μL of 20% trichloroacetic acid. Plates were chilled for a minimum of 10 min, and precipitated glucan collected by filtration on GF/C plates (Packard UNIFILTER®-96), washed with 5 cycles of water (about 1 mL/well each cycle) using a Packard FILTERMATE HARVESTER. 40 μL/well scintillation fluid (Packard ULTIMA GOLD TM-XR) was added and the sealed plates counted in a WALLAC BETA counter in top-counting mode at an efficiency of approximately 40%.
Stock solutions were stored at 10 mg/mL in DMSO at −20° C. For each new enzyme preparation, the initial titration performed started at 1 mg/mL, which was prepared by making a 10-fold dilution in DMSO (5 μL to 50 μL). 40 μL of this stock was placed in column 12 of a round-bottomed 96-well microtiter plate. 40 μL DMSO was added to columns 1 to 11 in the same row and ten 3-fold serial dilutions performed, by transferring 20 μL from column 12 to column 11 etc., with 4 mixings before each transfer. No test compound was transferred to from column 2 to column 1. Duplicate aliquots of 1 μL of all 12 dilutions were then transferred to the side walls of a 96-well Bioblock 1.1 mL plate (Fisher brand) to create two rows. Graphs of the primary data were created in PRISM software (the average of two determinations) using PRISM's curve fitting program (sigmoidal dose response non-linear regression). The amount of compound required to inhibit glucan synthase activity by 50% in this assay (IC50-ng/mL) was calculated.
Routine analysis was performed with glucan synthase (GS) prepared from Candida albicans MY1055 by the following procedure: MY1055 was grown in 10 liters YPD medium (10 g yeast extract, 20 g tryptone, 20 g glucose per liter) with vigorous shaking at 30° C., to early stationary phase. Cells were harvested by centrifugation, the pellet was washed and frozen at −70° C. until breakage. Thawed pellets were shaken with an equal volume of breakage buffer (50 mM HEPES pH 7.4, 10% glycerol, 1 mM EDTA, 1 mM PMSF, 1 mM DTT) and 4 times their weight of 0.5 mm acid washed glass beads for 2 hours at 4° C. Extent of breakage was assessed visually at 40× magnification. After low speed centrifugation to remove cell debris, the supernatant was centrifuged at 100,000×g for 60 min. to separate membranes plus ribosomes from cytoplasmic components. Membranes were further washed two additional times with breakage buffer using the same centrifugation conditions and finally suspended in breakage buffer at 25 to 30 mg/mL protein (Biorad) for storage at −70° C. Extraction of GS activity from membranes was performed at a protein concentration of 5 mg/mL in extraction buffer (50 mM NaPO4 pH 7.5, 0.1 M KCl, 0.1M Na citrate, 20% glycerol, 5 μM GTP-γ-S, 1 mM DTT, 1 mM PMSF, 3 μg/mL pepstatin) plus 0.25% W1 by gentle mixing at 4° C. for 60 min, followed by centrifugation at 100,000×g for 60 min. After centrifugation, clear supernatant was removed from a pellet consisting of a hard layer usually with small amounts of gelatinous unextracted membranes above it.
Trapping was initiated immediately by 5-fold dilution in trapping buffer (50 mM HEPES pH 7.5, 10 mM KF, 1 mM EDTA, 2 mg/mL BSA) plus 2.5 mM UDPG and 10 μM GTP-γ-S. After incubation at 25° C. for 60 to 90 minutes, glucan was harvested by low speed centrifugation (3,000×g, 10 min). […]

T1 sequence (O13428 1-1897): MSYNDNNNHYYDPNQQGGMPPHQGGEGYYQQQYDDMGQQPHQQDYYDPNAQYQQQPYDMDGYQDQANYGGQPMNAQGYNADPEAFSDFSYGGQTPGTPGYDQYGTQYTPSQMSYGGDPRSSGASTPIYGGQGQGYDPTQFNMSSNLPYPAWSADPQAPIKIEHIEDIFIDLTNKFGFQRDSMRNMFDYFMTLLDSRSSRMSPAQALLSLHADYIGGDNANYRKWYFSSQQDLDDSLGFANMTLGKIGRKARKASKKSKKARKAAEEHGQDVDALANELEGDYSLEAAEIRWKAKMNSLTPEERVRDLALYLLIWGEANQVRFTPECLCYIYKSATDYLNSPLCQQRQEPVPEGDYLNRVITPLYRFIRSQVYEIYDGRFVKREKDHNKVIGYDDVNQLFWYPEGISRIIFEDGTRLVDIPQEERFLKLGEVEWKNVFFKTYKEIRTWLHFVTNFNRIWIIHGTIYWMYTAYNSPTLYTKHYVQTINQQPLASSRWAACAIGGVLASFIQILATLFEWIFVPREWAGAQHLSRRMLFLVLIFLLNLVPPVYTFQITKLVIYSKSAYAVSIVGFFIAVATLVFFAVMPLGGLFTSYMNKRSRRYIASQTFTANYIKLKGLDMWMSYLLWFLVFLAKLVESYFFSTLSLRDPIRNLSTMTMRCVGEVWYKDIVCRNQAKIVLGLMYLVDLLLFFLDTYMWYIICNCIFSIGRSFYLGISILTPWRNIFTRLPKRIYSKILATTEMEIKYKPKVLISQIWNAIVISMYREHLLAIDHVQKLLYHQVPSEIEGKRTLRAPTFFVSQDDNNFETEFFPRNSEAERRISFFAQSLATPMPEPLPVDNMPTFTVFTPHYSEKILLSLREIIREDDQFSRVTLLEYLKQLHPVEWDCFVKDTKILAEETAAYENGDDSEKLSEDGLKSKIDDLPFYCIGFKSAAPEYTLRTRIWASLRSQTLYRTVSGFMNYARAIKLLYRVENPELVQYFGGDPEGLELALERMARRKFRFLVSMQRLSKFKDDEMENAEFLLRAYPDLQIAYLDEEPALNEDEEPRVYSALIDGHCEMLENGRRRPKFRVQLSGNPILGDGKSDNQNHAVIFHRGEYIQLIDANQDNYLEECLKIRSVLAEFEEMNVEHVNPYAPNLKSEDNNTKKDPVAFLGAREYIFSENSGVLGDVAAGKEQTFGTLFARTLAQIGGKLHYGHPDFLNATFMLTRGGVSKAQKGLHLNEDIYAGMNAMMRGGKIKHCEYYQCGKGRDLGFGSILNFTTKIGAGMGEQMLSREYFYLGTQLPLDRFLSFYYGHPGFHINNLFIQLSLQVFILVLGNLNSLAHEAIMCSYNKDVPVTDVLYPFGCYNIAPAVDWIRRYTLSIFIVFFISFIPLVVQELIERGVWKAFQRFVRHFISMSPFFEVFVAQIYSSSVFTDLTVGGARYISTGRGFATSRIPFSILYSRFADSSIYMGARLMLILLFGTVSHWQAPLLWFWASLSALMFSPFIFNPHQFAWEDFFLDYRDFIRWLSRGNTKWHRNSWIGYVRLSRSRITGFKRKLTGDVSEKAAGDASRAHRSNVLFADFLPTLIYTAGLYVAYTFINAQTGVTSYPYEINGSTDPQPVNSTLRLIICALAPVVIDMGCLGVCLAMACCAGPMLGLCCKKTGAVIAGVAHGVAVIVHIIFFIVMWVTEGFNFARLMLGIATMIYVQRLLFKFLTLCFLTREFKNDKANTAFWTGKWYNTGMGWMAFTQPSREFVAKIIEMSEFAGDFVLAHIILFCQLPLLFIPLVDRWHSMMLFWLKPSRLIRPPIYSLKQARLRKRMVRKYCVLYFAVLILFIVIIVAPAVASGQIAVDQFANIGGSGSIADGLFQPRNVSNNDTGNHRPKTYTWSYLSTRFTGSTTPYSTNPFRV
T1 sequence (O42825 1-195 partner limits assumed): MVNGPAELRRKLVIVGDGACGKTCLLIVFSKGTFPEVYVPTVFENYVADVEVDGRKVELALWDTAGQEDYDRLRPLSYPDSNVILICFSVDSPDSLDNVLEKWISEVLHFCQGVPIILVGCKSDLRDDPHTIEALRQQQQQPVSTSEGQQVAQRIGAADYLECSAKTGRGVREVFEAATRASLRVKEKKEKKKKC

| Structure (SMILES) | IC50 [nM] |
| --- | --- |
| CC(C)[C@@H](C)[C@@]1(C)CC[C@]2(C)[C@H]3CC[C@@H]4[C@@]5(COC[C@@]4(C)[C@@H](OC[C@@H](C4CC4)N(C)C)[C@H](n4nnc(N)n4)C5)C3=CC[C@@]2(C)[C@@H]1C(=O)O [Example 83, (1S,4aR,6aS,7R,8R,10aR,10bR,12aR,14R,15R)-14-(5-amino-2H-tetrazol-2-yl)-15-[(2R)-2-cyclopropyl-2-(dimethylamino)ethoxy]-8-[(1R)-1,2-dimethylpropyl]-1,6,6a,7,8,9,10,10a,10b,11,12,12a-dodecahydro-1,6a,8,10a-tetramethyl-4H-1,4a-propano-2H-phenanthro[1,2-c]pyran-7-carboxylic acid] | 16.5 |
| CNC1(CO[C@H]2[C@H](n3nnc(N)n3)C[C@@]34COC[C@]2(C)[C@@H]3CC[C@H]2C4=CC[C@@]3(C)[C@H](C(=O)O)[C@@](C)([C@H](C)C(C)C)CC[C@]23C)CCCCC1 [Example 32, (1S,4aR,6aS,7R,8R,10aR,10bR,12aR,14R,15R)-14-(5-amino-2H-tetrazol-2-yl)-8-[(1R)-1,2-dimethylpropyl]-15-[[1-(methylamino)cyclohexyl]methoxy]-1,6,6a,7,8,9,10,10a,10b,11,12,12a-dodecahydro-1,6a,8,10a-tetramethyl-4H-1,4a-propano-2H-phenanthro[1,2-c]pyran-7-carboxylic acid] | 11.7 |
| CCC(N)(CC)CO[C@H]1[C@H](n2nnc(N)n2)C[C@@]23COC[C@]1(C)[C@@H]2CC[C@H]1C3=CC[C@@]2(C)[C@H](C(=O)O)[C@@](C)([C@H](C)C(C)C)CC[C@]12C [Example 23, (1S,4aR,6aS,7R,8R,10aR,10bR,12aR,14R,15R)-15-(2-amino-2-ethylbutoxy)-14-(5-amino-2H-tetrazol-2-yl)-8-[(1R)-1,2-dimethylpropyl]-1,6,6a,7,8,9,10,10a,10b,11,12,12a-dodecahydro-1,6a,8,10a-tetramethyl-4H-1,4a-propano-2H-phenanthro[1,2-c]pyran-7-carboxylic acid] | 7.63 |
| CC[C@H](C)[C@@H](CO[C@H]1[C@H](n2nnc(N)n2)C[C@@]23COC[C@]1(C)[C@@H]2CC[C@H]1C3=CC[C@@]2(C)[C@H](C(=O)O)[C@@](C)([C@H](C)C(C)C)CC[C@]12C)N(C)C [Example 101, (1S,4aR,6aS,7R,8R,10aR,10bR,12aR,14R,15R)-14-(5-amino-2H-tetrazol-2-yl)-15-[[(2S,3S)-2-(dimethylamino)-3-methylpentyl]oxy]-8-[(1R)-1,2-dimethylpropyl]-1,6,6a,7,8,9,10,10a,10b,11,12,12a-dodecahydro-1,6a,8,10a-tetramethyl-4H-1,4a-propano-2H-phenanthro[1,2-c]pyran-7-carboxylic acid] | 11.7 |
| CC(C)[C@@H](C)[C@@]1(C)CC[C@]2(C)[C@H]3CC[C@@H]4[C@@]5(COC[C@@]4(C)[C@@H](OC[C@](C)(NCCCO)C(C)C)[C@H](n4nnc(N)n4)C5)C3=CC[C@@]2(C)[C@@H]1C(=O)O [Example 13, (1S,4aR,6aS,7R,8R,10aR,10bR,12aR,14R,15R)-14-(5-amino-2H-tetrazol-2-yl)-8-[(1R)-1,2-dimethylpropyl]-15-[[(2R)-2-[(3-hydroxypropyl)amino]-2,3-dimethylbutyl]oxy]-1,6,6a,7,8,9,10,10a,10b,11,12,12a-dodecahydro-1,6a,8,10a-tetramethyl-4H-1,4a-propano-2H-phenanthro[1,2-c]pyran-7-carboxylic acid] | 2.8 |
| CC(C)C(C(C)O[C@H]1[C@H](n2nnc(N)n2)C[C@@]23COC[C@]1(C)[C@@H]2CC[C@H]1C3=CC[C@@]2(C)[C@H](C(=O)O)[C@@](C)([C@H](C)C(C)C)CC[C@]12C)N(C)C (stereo partly drawn) [Example 49, (1S,4aR,6aS,7R,8R,10aR,10bR,12aR,14R,15R)-14-(5-amino-2H-tetrazol-2-yl)-15-[2-(dimethylamino)-1,3-dimethylbutoxy]-8-[(1R)-1,2-dimethylpropyl]-1,6,6a,7,8,9,10,10a,10b,11,12,12a-dodecahydro-1,6a,8,10a-tetramethyl-4H-1,4a-propano-2H-phenanthro[1,2-c]pyran-7-carboxylic acid] | 26.4 |
| CCN[C@@](C)(CO[C@H]1[C@H](n2nnc(N)n2)C[C@@]23COC[C@]1(C)[C@@H]2CC[C@H]1C3=CC[C@@]2(C)[C@H](C(=O)O)[C@@](C)([C@H](C)C(C)C)CC[C@]12C)C(C)(C)C [Example 20, (1S,4aR,6aS,7R,8R,10aR,10bR,12aR,14R,15R)-14-(5-amino-2H-tetrazol-2-yl)-8-[(1R)-1,2-dimethylpropyl]-15-[[(2R)-2-(ethylamino)-2,3,3-trimethylbutyl]oxy]-1,6,6a,7,8,9,10,10a,10b,11,12,12a-dodecahydro-1,6a,8,10a-tetramethyl-4H-1,4a-propano-2H-phenanthro[1,2-c]pyran-7-carboxylic acid] | 4.3 |
| CCCN[C@@](C)(CO[C@H]1[C@H](n2nnc(N)n2)C[C@@]23COC[C@]1(C)[C@@H]2CC[C@H]1C3=CC[C@@]2(C)[C@H](C(=O)O)[C@@](C)([C@H](C)C(C)C)CC[C@]12C)C(C)C [Example 55, (1S,4aR,6aS,7R,8R,10aR,10bR,12aR,14R,15R)-14-(5-amino-2H-tetrazol-2-yl)-15-[[(2R)-2,3-dimethyl-2-(propylamino)butyl]oxy]-8-[(1R)-1,2-dimethylpropyl]-1,6,6a,7,8,9,10,10a,10b,11,12,12a-dodecahydro-1,6a,8,10a-tetramethyl-4H-1,4a-propano-2H-phenanthro[1,2-c]pyran-7-carboxylic acid] | 11.5 |
| CCCN(C)[C@](C)(CO[C@H]1[C@H](n2nnc(N)n2)C[C@@]23COC[C@]1(C)[C@@H]2CC[C@H]1C3=CC[C@@]2(C)[C@H](C(=O)O)[C@@](C)([C@H](C)C(C)C)CC[C@]12C)C(C)C [Example 69, (1S,4aR,6aS,7R,8R,10aR,10bR,12aR,14R,15R)-14-(5-amino-2H-tetrazol-2-yl)-15-[[(2S)-2,3-dimethyl-2-(methylpropylamino)butyl]oxy]-8-[(1R)-1,2-dimethylpropyl]-1,6,6a,7,8,9,10,10a,10b,11,12,12a-dodecahydro-1,6a,8,10a-tetramethyl-4H-1,4a-propano-2H-phenanthro[1,2-c]pyran-7-carboxylic acid] | 28.1 |
| CC(=O)Nc1nnnn1[C@@H]1C[C@@]23COC[C@](C)([C@@H]2CC[C@H]2C3=CC[C@@]3(C)[C@H](C(=O)O)[C@@](C)([C@H](C)C(C)C)CC[C@]23C)[C@H]1OC[C@](C)(N)C(C)C [Example 38A, (1S,4aR,6aS,7R,8R,10aR,10bR,12aR,14R,15R)-14-[5-(acetylamino)-1H-tetrazol-1-yl]-15-[[(2R)-2-amino-2,3-dimethylbutyl]oxy]-8-[(1R)-1,2-dimethylpropyl]-1,6,6a,7,8,9,10,10a,10b,11,12,12a-dodecahydro-1,6a,8,10a-tetramethyl-4H-1,4a-propano-2H-phenanthro[1,2-c]pyran-7-carboxylic acid] | 81.8 |

— US8722727B2, “Antifungal agents” (Seynix, Inc., priority 2008, dated 2014)
